These results are taken from article PMC12040169 (PLOS Biology, 2025).

The nature of this data set: in vitro. The note with it: human, hela cells, % viability.
Consider `CCCCc1ccc(-c2cnc3nc(O)ccc3c2)cc1` [CBK081296], for which the viability at 28.5 h, 10 µM came to 69.9%.
Consider `O=S(=O)(c1ccc(I)cc1)n1ccc2c(N3CCNCC3)cncc21` [CBK081326C], for which the viability at 28.5 h, 10 µM came out at 84.9%.
In the case of `C(=C\c1ccc(-c2nnc(CSCCOc3ccccc3)o2)cc1)/CN1CCCC1` [CBK081376], the viability at 28.5 h, 10 µM turned out to be 98.5%.
Consider `COc1ccc(C(NC(=O)C2CCN(Cc3ccc4c(c3)OCO4)CC2)c2ccccc2C)cn1` (stereo not drawn) [CBK081453T], for which the viability at 28.5 h, 10 µM amounted to 121%.
Regarding `COc1ccc(C(NC(=O)N2CCN(C(=O)NCc3ccccc3Cl)CC2)c2ccccc2C)cn1` (stereo not drawn) [CBK081471], the viability at 28.5 h, 10 µM amounted to 88.7%.
The figure for `CCCCC1CCC(C(=O)Oc2ccccc2OCCO)CC1` (stereo not drawn) [CBK081498] is 90.6%; for `CCC1CCCCN1C(=O)c1cccc(C)c1C` (stereo not drawn) [CBK081501] it is 96.5%.
To `CCC1CCCCN1C(=O)c1cccc(OC)c1` (stereo not drawn) [CBK081504] belongs 98%; to `CC(C)Nc1cc(Cl)ncn1` [CBK081511], 108%; to `CCN(CC)C(=O)CCCc1[nH]nc(O)c1Cc1c(Cl)cccc1Cl` [CBK081524], 89%.
Regarding `CCC1CCCCN1C(=O)c1ccc(C)c(OC)c1` (stereo not drawn) [CBK081557], the viability at 28.5 h, 10 µM was determined as 103%.
To `COc1ccc([C@@]23CC[C@@H](NC(=O)c4ccc(C(F)(F)F)c(F)c4)C[C@@H]2CN(C)C3)cc1OC` [CBK082742C] belongs 107%.
On to `COc1ccc([C@]23CC[C@H](NC(=O)c4ccc(C(F)(F)F)c(F)c4)C[C@H]2CN(C)C3)cc1OC` [CBK082743T], for which the viability at 28.5 h, 10 µM is 110%.
As for `CCC1CCCCN1C(=O)c1ccc(C)c(Cl)c1` (stereo not drawn) [CBK082756], the viability at 28.5 h, 10 µM is 91.7%.
To `COc1ccc2[nH]c3c(c2c1)CCN(C(=O)CNCC(=O)O)C31CCN(CCOc2ccccc2)C1` (stereo not drawn) [CBK082782T] belongs 114%; to `O=[N+]([O-])c1ccc(CN2CCN(c3nccnc3OCC3COc4ccccc4O3)CC2)cc1` (stereo not drawn) [CBK082791T], 107%; to `c1ccc(CCN2CCN(c3nccnc3OCC3COc4ccccc4O3)CC2)cc1` (stereo not drawn) [CBK082794T], 99.4%.
As to `CSCCN1CCN(c2nccnc2OCC2COc3ccccc3O2)CC1` (stereo not drawn) [CBK082806T], the viability at 28.5 h, 10 µM was 85.2%.
For `COc1ccc2[nH]c3c(c2c1)CCN(CCc1ccc(F)cc1)C3` [CBK082819T], the viability at 28.5 h, 10 µM was 92.3%.
In the case of `Clc1ccc(CN2CCN(c3nccnc3OC3CCCCC3)CC2)cc1` [CBK082826T], the viability at 28.5 h, 10 µM was determined as 101%.
As for `COc1ccc(CN2CCN(c3nccnc3OC3CCCCC3)CC2)cc1` [CBK082830T], the viability at 28.5 h, 10 µM came out at 115%.
Take `c1cnc(N2CCN(Cc3ccc4c(c3)OCO4)CC2)c(OC2CCCCC2)n1` [CBK082833T]: the viability at 28.5 h, 10 µM came to 95.6%.
As to `CSCCN1CCN(c2nccnc2OC2CCCCC2)CC1` [CBK082843T], the viability at 28.5 h, 10 µM is 108%.
Take `c1ccc2c(CCN3CCN(c4nccnc4OC4CCCCC4)CC3)c[nH]c2c1` [CBK082847T]: the viability at 28.5 h, 10 µM is 100%.
Regarding `FC(F)(F)c1ccc(CN2CCC(Oc3nccnc3OC3CCCCC3)CC2)cc1` [CBK082859T], the viability at 28.5 h, 10 µM worked out at 92.1%.
Take `O=[N+]([O-])c1ccc(CN2CCC(Oc3nccnc3OC3CCCCC3)CC2)cc1` [CBK082861T]: the viability at 28.5 h, 10 µM was found to be 90.4%.
Regarding `CCN(CC)C(=O)CN1CCC(Oc2nccnc2OC2CCCCC2)CC1` [CBK082866T], the viability at 28.5 h, 10 µM worked out at 87%.
Consider `c1ccc2c(CCN3CCC(Oc4nccnc4OC4CCCCC4)CC3)c[nH]c2c1` [CBK082877T], for which the viability at 28.5 h, 10 µM is 86.2%.
As for `c1cnc(OC2CCN(CC3CCCCC3)CC2)c(OC2CCCCC2)n1` [CBK082879T], the viability at 28.5 h, 10 µM stood at 101%.
As to `c1ccc(CN2CCN(c3nccnc3OCCN3CCOCC3)CC2)cc1` [CBK082885T], the viability at 28.5 h, 10 µM amounted to 104%.
The figure for `Fc1ccccc1CN1CCN(c2nccnc2OCCN2CCOCC2)CC1` [CBK082886T] is 102%; for `O=[N+]([O-])c1ccc(CN2CCN(c3nccnc3OCCN3CCOCC3)CC2)cc1` [CBK082892T] it is 99.8%.
As for `c1cnc(N2CCN(Cc3ccc4c(c3)OCO4)CC2)c(OCCN2CCOCC2)n1` [CBK082894T], the viability at 28.5 h, 10 µM was determined as 87.8%.
Regarding `CCN(CC)c1ccc(C(=O)CN2CCN(c3nccnc3OCCN3CCOCC3)CC2)cc1` [CBK082898T], the viability at 28.5 h, 10 µM amounted to 97.4%.
In the case of `c1cnc(N2CCN(CC3CC3)CC2)c(OCCN2CCOCC2)n1` [CBK082909], the viability at 28.5 h, 10 µM came to 87.2%.
For `c1cncc(OCCN2CCN(c3nccnc3OCCN3CCOCC3)CC2)c1` [CBK082914], the viability at 28.5 h, 10 µM was determined as 107%.
Regarding `Clc1ccc(CN2CCC(Oc3nccnc3OCCN3CCOCC3)CC2)cc1` [CBK082918T], the viability at 28.5 h, 10 µM came out at 92.5%.
For the compound `O=[N+]([O-])c1ccc(CN2CCC(Oc3nccnc3OCCN3CCOCC3)CC2)cc1` [CBK082923T], the viability at 28.5 h, 10 µM stood at 91%.
For the compound `c1cnc(OC2CCN(Cc3ccc4c(c3)OCO4)CC2)c(OCCN2CCOCC2)n1` [CBK082925T], the viability at 28.5 h, 10 µM turned out to be 115%.
Take `CCN(CC)C(=O)CN1CCC(Oc2nccnc2OCCN2CCOCC2)CC1` [CBK082928]: the viability at 28.5 h, 10 µM was 93.4%.
With `CCOC(=O)CN1CCC(Oc2nccnc2OCCN2CCOCC2)CC1` [CBK082929], the viability at 28.5 h, 10 µM came out at 103%.
On to `CCN1CCC(Oc2nccnc2OCCN2CCOCC2)CC1` [CBK082931], for which the viability at 28.5 h, 10 µM turned out to be 94.6%.
With `CSCCN1CCC(Oc2nccnc2OCCN2CCOCC2)CC1` [CBK082935], the viability at 28.5 h, 10 µM was 92.9%.
For `c1ccc2c(CCN3CCC(Oc4nccnc4OCCN4CCOCC4)CC3)c[nH]c2c1` [CBK082939T], the viability at 28.5 h, 10 µM came out at 88.6%.
Take `c1ccc2cc(CCN3CCC(Oc4nccnc4OCCN4CCOCC4)CC3)ccc2c1` [CBK082942T]: the viability at 28.5 h, 10 µM turned out to be 90.7%.
Regarding `c1ccc(CCN2CCC(Oc3nccnc3OCCN3CCOCC3)CC2)nc1` [CBK082944], the viability at 28.5 h, 10 µM came out at 96%.
Take `Cc1cc(COc2nccnc2OC2CCN(Cc3ccc(Cl)cc3)CC2)no1` [CBK082949T]: the viability at 28.5 h, 10 µM is 85.7%.
Consider `Cc1cc(COc2nccnc2OC2CCN(CC(=O)Nc3c(C)cccc3C)CC2)no1` [CBK082958T], for which the viability at 28.5 h, 10 µM is 103%.
As to `CCN1CCC(Oc2nccnc2OCc2cc(C)on2)CC1` [CBK082962T], the viability at 28.5 h, 10 µM came out at 94.7%.
For the compound `O=[N+]([O-])c1ccc(CN2CCC(Oc3nccnc3OCC3COc4ccccc4O3)CC2)cc1` (stereo not drawn) [CBK082984T], the viability at 28.5 h, 10 µM was found to be 99.1%.
Take `Fc1ccc(Oc2nccnc2N2CCN(Cc3cccnc3)CC2)cc1` [CBK083011]: the viability at 28.5 h, 10 µM was found to be 87.5%.
Turning to `Fc1ccc(Oc2nccnc2N2CCN(CCOc3cccnc3)CC2)cc1` [CBK083037T], the viability at 28.5 h, 10 µM stood at 98.7%.
To `COc1ccc(Oc2nccnc2N2CCN(Cc3ccc(Cl)c(Cl)c3)CC2)cc1OC` [CBK083038T] belongs 91.8%; to `CCN(CC)C(=O)CN1CCN(c2nccnc2Oc2ccc(OC)c(OC)c2)CC1` [CBK083051T], 103%; to `CCOC(=O)CN1CCN(c2nccnc2Oc2ccc(OC)c(OC)c2)CC1` [CBK083052T], 103%.
Take `COc1ccc(Oc2nccnc2N2CCN(CCCC#N)CC2)cc1OC` [CBK083056T]: the viability at 28.5 h, 10 µM came out at 95.5%.
In the case of `COc1ccc(Oc2nccnc2N2CCN(CCOc3ccccc3)CC2)cc1OC` [CBK083061T], the viability at 28.5 h, 10 µM is 86.3%.
As to `O=[N+]([O-])c1ccc(CN2CCN(c3nccnc3OCc3ccc(Cl)c(Cl)c3)CC2)cc1` [CBK083076T], the viability at 28.5 h, 10 µM is 101%.
Consider `CCN(CC)C(=O)CN1CCN(c2nccnc2OCc2ccc(Cl)c(Cl)c2)CC1` [CBK083081T], for which the viability at 28.5 h, 10 µM came out at 101%.
On to `Clc1ccc(COc2nccnc2N2CCN(CCOc3ccccc3)CC2)cc1Cl` [CBK083091T], for which the viability at 28.5 h, 10 µM turned out to be 95.2%.
With `Clc1ccc(COc2nccnc2OC2CCN(Cc3ccc4c(c3)OCO4)CC2)cc1Cl` [CBK083109T], the viability at 28.5 h, 10 µM worked out at 86.6%.
Consider `CCOC(=O)CN1CCC(Oc2nccnc2OCc2ccc(Cl)c(Cl)c2)CC1` [CBK083113T], for which the viability at 28.5 h, 10 µM stood at 96.7%.
With `Clc1ccc(COc2nccnc2OC2CCN(CCOc3ccccc3)CC2)cc1Cl` [CBK083121T], the viability at 28.5 h, 10 µM was determined as 95.9%.
Turning to `c1ccc(CN2CCN(c3nccnc3OCc3cccnc3)CC2)cc1` [CBK083129T], the viability at 28.5 h, 10 µM is 91.3%.
In the case of `O=[N+]([O-])c1ccc(CN2CCN(c3nccnc3OCc3cccnc3)CC2)cc1` [CBK083135T], the viability at 28.5 h, 10 µM amounted to 106%.
To `CCN1CCN(c2nccnc2OCc2cccnc2)CC1` [CBK083142] belongs 113%; to `CSCCN1CCN(c2nccnc2OCc2cccnc2)CC1` [CBK083146], 91%.
In the case of `FC(F)(F)c1ccc(CN2CCC(Oc3nccnc3OCc3cccnc3)CC2)cc1` [CBK083160T], the viability at 28.5 h, 10 µM came to 91.6%.
For `O=[N+]([O-])c1ccc(CN2CCC(Oc3nccnc3OCc3cccnc3)CC2)cc1` [CBK083162T], the viability at 28.5 h, 10 µM came out at 95.8%.
On to `NC(=O)CN1CCC(Oc2nccnc2OCc2cccnc2)CC1` [CBK083165], for which the viability at 28.5 h, 10 µM came to 107%.
Consider `CSCCN1CCC(Oc2nccnc2OCc2cccnc2)CC1` [CBK083173], for which the viability at 28.5 h, 10 µM was found to be 90.3%.
The figure for `c1ccc(CCN2CCC(Oc3nccnc3OCc3cccnc3)CC2)nc1` [CBK083180] is 103%; for `O=C(Nc1cccnc1)C1CCN(C(=O)OCc2ccccc2)CC1` [CBK083187] it is 90.6%; for `CCC1CCCCN1C(=O)c1cccc(C(=O)OC)c1` (stereo not drawn) [CBK083195] it is 109%.
The figure for `CCC1CCCCN1C(=O)c1ccccc1OC` (stereo not drawn) [CBK083205] is 99.4%; for `COc1ccc(CN2CCCN(c3ccnc(OCC4COc5ccccc5O4)n3)CC2)cc1` (stereo not drawn) [CBK083234T] it is 96.8%.
In the case of `c1ccc2c(c1)OCC(COc1nccc(N3CCCN(Cc4ccc5c(c4)OCO5)CC3)n1)O2` (stereo not drawn) [CBK083235T], the viability at 28.5 h, 10 µM is 85.7%.
In the case of `CC(C)c1ccc(CN2CCCN(c3cc(OCCc4c[nH]c5ccccc45)ncn3)CC2)cc1` [CBK083280T], the viability at 28.5 h, 10 µM was 106%.
